The text below walks through data of publication PMC12037730 (Nature Communications, 2025).

Data set [1] concerns the target T1, PRPS1 (Homo sapiens, UniProt P60891).
T1 construct: full length
T1 sequence (P60891 2-318): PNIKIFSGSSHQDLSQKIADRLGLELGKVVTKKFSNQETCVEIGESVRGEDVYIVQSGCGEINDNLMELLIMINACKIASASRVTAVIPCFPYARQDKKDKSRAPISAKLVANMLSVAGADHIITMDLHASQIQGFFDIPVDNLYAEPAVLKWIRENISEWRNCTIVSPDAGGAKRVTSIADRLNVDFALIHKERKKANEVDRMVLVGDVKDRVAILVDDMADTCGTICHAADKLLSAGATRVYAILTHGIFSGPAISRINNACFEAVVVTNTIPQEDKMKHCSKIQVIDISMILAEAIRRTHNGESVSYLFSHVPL
Put plainly: steady-state kinetics, coupled assay at […] nm. Type of data set: biochemical.

In the next data set the target is T2, PRPS2(-3AA/Q156K) (Homo sapiens, UniProt P11908, Q153K).
T2 construct: full length chimeric variant, 3AA (V103, G104, E105) deleted
T2 sequence (P11908 2-318 Q153K): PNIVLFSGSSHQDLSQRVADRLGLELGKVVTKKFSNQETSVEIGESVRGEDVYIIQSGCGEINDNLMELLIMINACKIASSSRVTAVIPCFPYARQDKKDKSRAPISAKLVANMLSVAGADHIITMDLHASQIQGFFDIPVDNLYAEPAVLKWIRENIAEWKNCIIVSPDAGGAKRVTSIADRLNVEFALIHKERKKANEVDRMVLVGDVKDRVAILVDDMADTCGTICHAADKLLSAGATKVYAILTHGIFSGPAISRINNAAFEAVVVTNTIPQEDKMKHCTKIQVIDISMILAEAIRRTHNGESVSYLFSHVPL
Put plainly: HPLC feedback inhibition assay (AMP production). Type of data set: biochemical.

The target of data set [2] is T1, PRPS1. Description: ITC; co-crystal structure with R5P, ApCpp, Cd2+; enzyme inhibition (IC50 […]). Type of data set: binding. Background: In ITC the heat of successive injections is recorded.
Data set [3] deals with the molecule itself. Description: crystal structure; co-crystallisation of 500 μM purified PRPS with ApCpp or GDP (1:5), R5P, crystals soaked in 1 mM CdCl2; 277 K.

Turning to `Nc1ncnc2c1ncn2[C@@H]1O[C@H](COP(=O)(O)OP(=O)(O)OP(=O)(O)O)[C@@H](O)[C@H]1O` [ATP], the “steady-state kinetics, coupled assay at 340 nm” value on PRPS1 [1] is “The catalytic efficiencies of PRPS2 and PRPS1 on either ATP or R5P were characterized”.

What is called Kd is the free concentration of one partner at which half of the binding sites on the other are occupied at equilibrium, for simple one-to-one binding. A low value points to a tighter complex. On to `Nc1nc2c(ncn2[C@@H]2O[C@H](CO[P@](=O)(O)OP(=O)(O)O)[C@@H](O)[C@H]2O)c(=O)[nH]1` [GDP], for which the “HPLC feedback inhibition assay (AMP production)” value on PRPS2(-3AA/Q156K) is “chimeric variants of PRPS1( + 3AA/K153Q) and PRPS2(-3AA/Q156K), which exhibited switched GDP feedback inhibition responses”. The same molecule displayed a Kd at PRPS1 [2] of 10 µM.

B1: recombinant PRPS2 (enzyme, human, UniProt P11908-2 1-321, looked up)
chain: MPNIVLFSGSSHQDLSQRVADRLGLELGKVVTKKFSNQETSVEIGESVRGEDVYIIQSGCGEINDNLMELLIMINACKIASSSRVTAVIPCFPYARQDKKDKVGESRAPISAKLVANMLSVAGADHIITMDLHASQIQGFFDIPVDNLYAEPAVLQWIRENIAEWKNCIIVSPDAGGAKRVTSIADRLNVEFALIHKERKKANEVDRMVLVGDVKDRVAILVDDMADTCGTICHAADKLLSAGATKVYAILTHGIFSGPAISRINNAAFEAVVVTNTIPQEDKMKHCTKIQVIDISMILAEAIRRTHNGESVSYLFSHVPL
notes: PRPS2, human, full-length gene synthesised and subcloned into pSumo; the form with V103, G104, E105 (3AA) in Loop2 and Q156, i.e. the 321-residue isoform; Crystallised with R5P, ApCpp and Cd2+; source: E. coli BL21(DE3), purified (Ni-NTA, ion exchange, Superdex-200); not shown: His-Sumo, N-terminal, cleaved
Turning to B1, the binding result in data set [3] is reported as “binds”.

B2: PRPS1( + 3AA), PRPS1 chimeric variant (enzyme, human, UniProt P60891 1-318, looked up)
chain: MPNIKIFSGSSHQDLSQKIADRLGLELGKVVTKKFSNQETCVEIGESVRGEDVYIVQSGCGEINDNLMELLIMINACKIASASRVTAVIPCFPYARQDKKDKVGESRAPISAKLVANMLSVAGADHIITMDLHASQIQGFFDIPVDNLYAEPAVLKWIRENISEWRNCTIVSPDAGGAKRVTSIADRLNVDFALIHKERKKANEVDRMVLVGDVKDRVAILVDDMADTCGTICHAADKLLSAGATRVYAILTHGIFSGPAISRINNACFEAVVVTNTIPQEDKMKHCSKIQVIDISMILAEAIRRTHNGESVSYLFSHVPL
notes: PRPS1, human, full length, with the three residues V, G, E of PRPS2 (V103, G104, E105) inserted into the corresponding position of Loop2; the C-terminal residue is then L321; Crystallised with R5P, ApCpp and Cd2+; also called PRPS1 chimera; source: E. coli BL21(DE3), purified (Ni-NTA, ion exchange, Superdex-200); not shown: His-Sumo, N-terminal, cleaved
B2: the binding result in data set [3] is recorded as “binds”.
